Experimental data taken from ChEMBL document CHEMBL5154944, “Discovery of Aryloxyphenyl-Heptapeptide Hybrids as Potent and Selective Matrix Metalloproteinase-2 Inhibitors for the Treatment of Idiopathic Pulmonary Fibrosis” (J Med Chem, 2022).
pIC50: −log10 of the molar value. Non-standard residues stand in square brackets, D forms with d. Residues, ends and D or L forms follow the SMILES beside them. *: point of attachment. Benzenesulfonyl(4-OPh) = O=S(=O)(c1ccc(Oc2ccccc2)cc1)*; NMeI = CC[C@H](C)[C@H](NC)C(=O)O; NMeE = CN[C@@H](CCC(=O)O)C(=O)O; β3hP = O=C(O)C[C@@H]1CCCN1; Dab = NCC[C@H](N)C(=O)O; GABA = NCCCC(=O)O

What was measured:
[1] = biological target: Stromelysin-1 (Homo sapiens, UniProt P08254); experiment: Inhibition of recombinant human MMP3 using MOCAc-Lys-Pro-Leu-Gly-Leu-A2pr(Dnp)-[…] as substrate preincubated for 15 mins followed by substrate addition by fluroscence based assay
[2] = species on record: Homo sapiens; experiment: Selectivity ratio of IC50 for recombinant human MMP8 to IC50 for recombinant human MMP2
[3] = biological target: T1, Matrilysin (Homo sapiens, UniProt P09237)
T1 sequence (P09237 whole entry): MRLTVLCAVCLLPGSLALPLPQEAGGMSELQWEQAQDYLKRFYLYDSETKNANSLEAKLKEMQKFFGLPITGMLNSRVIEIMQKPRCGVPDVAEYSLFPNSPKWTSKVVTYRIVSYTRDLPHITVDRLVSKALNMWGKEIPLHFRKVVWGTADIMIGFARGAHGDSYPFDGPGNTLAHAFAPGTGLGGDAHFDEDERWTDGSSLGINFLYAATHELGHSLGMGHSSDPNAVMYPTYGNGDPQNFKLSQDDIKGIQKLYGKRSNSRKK

[4] = Volume of distribution at steady state in fasted Sprague-Dawley rat at 0.4 mg/kg, iv by LC-MS/MS analysis; type: ADME, organism-based; conditions: in vivo, read-out: Vdss
[5] = biological target: Matrix metalloproteinase-14 (Homo sapiens, UniProt P50281); experiment: Inhibition of recombinant human MMP14 using MOCAc-Lys-Pro-Leu-Gly-Leu-A2pr(Dnp)-Ala-Arg-NH2 as substrate preincubated for 15 mins followed by substrate addition by fluroscence based assay
[6] = Clearance in fasted Sprague-Dawley rat at 0.4 mg/kg, iv by LC-MS/MS analysis; type: ADME, organism-based; conditions: in vivo
[7] = Metabolic stability in rat hepatocytes assessed as parent compound remaining incubated for 1 hr by LC-MS/MS; type: ADME, cell-based, Hepatocyte; conditions: read-out: Stability
[8] = biological target: Collagenase 3 (Homo sapiens, UniProt P45452)
[9] = species on record: Homo sapiens; experiment: Selectivity ratio of IC50 for recombinant human MMP12 to IC50 for recombinant human MMP2
[10] = biological target: Matrix metalloproteinase-9 (Homo sapiens, UniProt P14780)
[11] = biological target: T2, Interstitial collagenase (Homo sapiens, UniProt P03956); experiment: Inhibition of recombinant human MMP1 using MOCAc-Lys-Pro-Leu-Gly-Leu-A2pr(Dnp)-Ala-Arg-NH2 as substrate preincubated for 15 mins followed by substrate addition by fluroscence based assay
T2 sequence (P03956 whole entry): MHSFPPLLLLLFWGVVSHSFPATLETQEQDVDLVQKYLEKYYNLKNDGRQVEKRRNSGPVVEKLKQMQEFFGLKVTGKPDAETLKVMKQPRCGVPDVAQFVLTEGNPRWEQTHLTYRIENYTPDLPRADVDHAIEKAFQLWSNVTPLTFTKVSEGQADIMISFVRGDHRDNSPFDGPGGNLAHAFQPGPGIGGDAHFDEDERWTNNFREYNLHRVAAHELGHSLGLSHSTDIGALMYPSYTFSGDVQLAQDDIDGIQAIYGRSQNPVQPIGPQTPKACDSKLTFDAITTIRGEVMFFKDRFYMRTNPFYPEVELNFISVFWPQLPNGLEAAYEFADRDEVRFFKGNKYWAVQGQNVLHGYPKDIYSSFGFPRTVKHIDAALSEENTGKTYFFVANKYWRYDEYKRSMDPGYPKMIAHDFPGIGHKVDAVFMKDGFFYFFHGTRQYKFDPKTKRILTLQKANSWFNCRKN

[12] = biological target: Neutrophil collagenase (Homo sapiens, UniProt P22894)
[13] = biological target: MMP-1/MMP-2 (Homo sapiens) (UniProt P08253+P03956); experiment: Selectivity ratio of IC50 for recombinant human MMP1 to IC50 for recombinant human MMP2; type: protein assay
[14] = biological target: MMP-2/MMP-14 (Homo sapiens) (UniProt P50281+P08253); experiment: Selectivity ratio of IC50 for recombinant human MMP14 to IC50 for recombinant human MMP2; type: protein assay
[15] = biological target: MMP-2/MMP-9 (Homo sapiens) (UniProt P08253+P14780); experiment: Selectivity ratio of IC50 for recombinant human MMP9 to IC50 for recombinant human MMP2; type: protein assay
[16] = biological target: 72 kDa type IV collagenase (Homo sapiens, UniProt P08253)
[17] = species on record: Homo sapiens; experiment: Selectivity ratio of IC50 for recombinant human MMP7 to IC50 for recombinant human MMP2
[18] = Half life in fasted Sprague-Dawley rat at 0.4 mg/kg, iv by LC-MS/MS analysis; type: ADME, organism-based; conditions: in vivo
[19] = physchem; conditions: buffer, pH 7.4
[20] = species on record: Homo sapiens; experiment: Selectivity ratio of IC50 for recombinant human MMP3 to IC50 for recombinant human MMP2

Sequence of Neutrophil collagenase (P22894 whole entry): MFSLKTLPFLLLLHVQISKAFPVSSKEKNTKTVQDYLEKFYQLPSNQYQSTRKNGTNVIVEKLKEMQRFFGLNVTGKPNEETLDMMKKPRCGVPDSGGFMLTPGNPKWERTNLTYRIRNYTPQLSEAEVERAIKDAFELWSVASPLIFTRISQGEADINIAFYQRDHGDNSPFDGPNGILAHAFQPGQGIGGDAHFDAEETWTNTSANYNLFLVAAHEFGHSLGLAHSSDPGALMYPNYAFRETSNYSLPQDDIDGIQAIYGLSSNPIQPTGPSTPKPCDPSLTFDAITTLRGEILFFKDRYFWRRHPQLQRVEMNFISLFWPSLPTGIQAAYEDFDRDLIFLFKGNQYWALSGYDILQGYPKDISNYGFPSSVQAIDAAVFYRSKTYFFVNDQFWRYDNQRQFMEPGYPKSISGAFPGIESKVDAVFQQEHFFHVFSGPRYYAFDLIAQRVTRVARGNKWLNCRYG
Sequence of MMP-1/MMP-2 (Homo sapiens) (P08253 whole entry, looked up, one chain of several): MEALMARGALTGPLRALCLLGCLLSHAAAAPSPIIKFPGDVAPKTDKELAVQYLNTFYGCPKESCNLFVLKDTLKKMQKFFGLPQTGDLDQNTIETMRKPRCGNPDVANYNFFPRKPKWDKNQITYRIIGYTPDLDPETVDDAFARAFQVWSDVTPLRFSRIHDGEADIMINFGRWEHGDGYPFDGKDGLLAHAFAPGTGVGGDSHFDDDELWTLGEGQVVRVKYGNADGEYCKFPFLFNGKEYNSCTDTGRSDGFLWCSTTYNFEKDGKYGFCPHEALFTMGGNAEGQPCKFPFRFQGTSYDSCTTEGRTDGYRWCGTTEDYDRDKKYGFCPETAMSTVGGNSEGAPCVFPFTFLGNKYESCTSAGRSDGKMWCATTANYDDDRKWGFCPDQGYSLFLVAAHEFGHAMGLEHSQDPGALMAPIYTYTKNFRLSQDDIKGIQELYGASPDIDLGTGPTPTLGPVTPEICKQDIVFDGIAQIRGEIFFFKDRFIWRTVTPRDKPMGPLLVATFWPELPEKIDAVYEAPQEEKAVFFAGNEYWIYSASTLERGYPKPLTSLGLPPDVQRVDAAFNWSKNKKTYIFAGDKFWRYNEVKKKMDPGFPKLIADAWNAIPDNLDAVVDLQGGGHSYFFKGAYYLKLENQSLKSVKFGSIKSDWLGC
Sequence of 72 kDa type IV collagenase (P08253 whole entry): as the sequence (P08253 whole entry, looked up, one chain of several) above
Sequence of Stromelysin-1 (P08254 whole entry): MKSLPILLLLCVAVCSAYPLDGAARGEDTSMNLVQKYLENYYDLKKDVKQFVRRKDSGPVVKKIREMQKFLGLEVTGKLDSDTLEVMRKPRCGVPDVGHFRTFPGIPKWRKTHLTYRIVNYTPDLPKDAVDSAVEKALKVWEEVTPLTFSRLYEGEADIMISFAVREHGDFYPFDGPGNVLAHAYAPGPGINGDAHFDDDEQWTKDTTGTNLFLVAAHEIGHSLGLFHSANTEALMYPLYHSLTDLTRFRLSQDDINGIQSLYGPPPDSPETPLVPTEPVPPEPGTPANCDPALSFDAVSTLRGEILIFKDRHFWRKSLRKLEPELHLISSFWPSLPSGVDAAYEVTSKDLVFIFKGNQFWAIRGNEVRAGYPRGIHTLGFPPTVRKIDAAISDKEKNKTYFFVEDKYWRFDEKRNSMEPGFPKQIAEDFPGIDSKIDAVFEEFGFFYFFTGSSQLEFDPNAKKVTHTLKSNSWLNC
Sequence of Matrix metalloproteinase-9 (P14780 whole entry): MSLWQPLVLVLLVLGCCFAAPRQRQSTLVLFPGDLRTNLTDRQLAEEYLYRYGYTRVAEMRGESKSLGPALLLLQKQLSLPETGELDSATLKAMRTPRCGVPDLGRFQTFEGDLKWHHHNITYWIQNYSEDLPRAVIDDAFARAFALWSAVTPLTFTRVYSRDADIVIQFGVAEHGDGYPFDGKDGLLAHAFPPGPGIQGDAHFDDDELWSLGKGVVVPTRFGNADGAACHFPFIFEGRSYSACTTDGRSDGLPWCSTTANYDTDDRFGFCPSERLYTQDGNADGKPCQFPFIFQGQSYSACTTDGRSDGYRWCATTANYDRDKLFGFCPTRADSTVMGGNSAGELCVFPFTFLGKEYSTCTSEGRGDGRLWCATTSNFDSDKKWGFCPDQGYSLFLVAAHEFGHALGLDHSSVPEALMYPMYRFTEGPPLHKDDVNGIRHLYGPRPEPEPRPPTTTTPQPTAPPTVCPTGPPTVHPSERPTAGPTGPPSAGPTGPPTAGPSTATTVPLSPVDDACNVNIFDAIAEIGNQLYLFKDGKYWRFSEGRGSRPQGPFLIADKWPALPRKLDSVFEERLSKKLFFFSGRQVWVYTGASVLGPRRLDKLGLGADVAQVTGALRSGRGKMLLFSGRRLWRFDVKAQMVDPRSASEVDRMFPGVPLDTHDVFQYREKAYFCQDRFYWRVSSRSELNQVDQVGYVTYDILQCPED

CC[C@H](C)[C@@H](C(=O)N1CCC[C@H]1CC(N)=O)N(C)C(=O)[C@H](CC(C)C)NC(=O)[C@H](C)NC(=O)[C@H](CC(=O)O)NC(=O)[C@H](CC(N)=O)NC(=O)CCCNS(=O)(=O)c1ccc(Oc2ccccc2)cc1 ({Benzenesulfonyl(4-OPh)-GABA}-NDAL[NMeI][β3hP]-NH2)
pIC50 [1]: < 5.00
Ratio IC50 [2]: 4740
pIC50 [3]: 5.68
Vd [4]: 0.882 L/kg
pIC50 [5]: 7.96
clearance [6]: 74.5 mL/min/kg
remaining at 1 h, 1 µM [7]: 68.4%
pIC50 [8]: 7.68
Ratio IC50 [9]: 85
pIC50 [10]: 6.74
pIC50 [11]: < 5.00
pIC50 [12]: 6.58
Ratio IC50 [13]: 182000
Ratio IC50 [14]: 200
Ratio IC50 [15]: 3290
pIC50 [16]: 10.26
Ratio IC50 [17]: 38100
half-life [18]: 8 min
logD [19]: 1.53
Ratio IC50 [20]: > 182000

CC(C)C[C@H](NC(=O)[C@H](CCN)NC(=O)[C@H](CC(=O)O)NC(=O)[C@H](CC(N)=O)NC(=O)CCCNS(=O)(=O)c1ccc(Oc2ccccc2)cc1)C(=O)N(C)[C@@H](CCC(=O)O)C(=O)N1CCC[C@H]1CC(N)=O ({Benzenesulfonyl(4-OPh)-GABA}-ND[Dab]L[NMeE][β3hP]-NH2)
pIC50 [1]: < 5.00
Ratio IC50 [2]: 86500
pIC50 [3]: < 5.00
Vd [4]: 0.275 L/kg
pIC50 [5]: 6.28
clearance [6]: 20.2 mL/min/kg
remaining at 1 h, 1 µM [7]: 91.7%
pIC50 [8]: 6.44
Ratio IC50 [9]: 7240
pIC50 [10]: < 5.00
pIC50 [11]: < 5.00
pIC50 [12]: 5.23
Ratio IC50 [13]: > 147000
Ratio IC50 [14]: 7740
Ratio IC50 [15]: > 147000
pIC50 [16]: 10.17
Ratio IC50 [17]: > 147000
half-life [18]: 9 min
logD [19]: 1.26
Ratio IC50 [20]: > 147000
